Test results from ChEMBL document CHEMBL5257109, “Development of actein derivatives as potent anti-triple negative breast cancer agents” (Bioorg Med Chem Lett, 2023).
Activity calls are given as the source filed them. The calls are words filed in the database; no cut-off is given here.

Key:
HCC1806 [1] = assay: Antiproliferative activity against human HCC1806 cells assessed as inhibition of cell growth at 20 uM incubated for 36 hrs by SRB assay relative to control; type: functional
MDA-MB-231 [2] = assay: Antiproliferative activity against human MDA-MB-231 cells assessed as inhibition of cell growth at 20 uM incubated for 36 hrs by SRB assay relative to control; type: functional
HCC1806 [3] = assay: Induction of cell death in human HCC1806 cells assessed as increase in p21 expression incubated for 36 hrs by Western blot analysis; type: functional, cell-based; details: dose 10-20 µM
HCC1806 [4] = assay: Induction of cell cycle arrest in human HCC1806 cells assessed as decrease in G2/M phase cells at 10 uM incubated for 36 hrs by PI staining based flow cytometric analysis; type: functional
HCC1806 [5] = assay: Antiproliferative activity against human HCC1806 cells assessed as inhibition of cell growth incubated for 36 hrs by SRB assay; type: functional, cell-based; details: HCC1806, 36 h
HCC1806 [6] = assay: Induction of cell death in human HCC1806 cells assessed as activation of p38 protein incubated for 36 hrs by Western blot analysis; type: functional, cell-based; details: dose 10-20 µM
HCC1806 [7] = assay: Induction of cell cycle arrest in human HCC1806 cells assessed as increase in S phase cells at 10 uM incubated for 36 hrs by PI staining based flow cytometric analysis; type: functional
MDA-MB-231 [8] = assay: Antiproliferative activity against human MDA-MB-231 cells assessed as inhibition of cell growth incubated for 36 hrs by SRB assay; type: functional, cell-based; details: MDA-MB-231, 36 h
MDA-MB-231 [9] = assay: Antiproliferative activity against human MDA-MB-231 cells assessed as inhibition of cell growth; type: functional, cell-based
MDA-MB-231 [10] = assay: Antiproliferative activity against human MDA-MB-231 cells overexpressing ERnegative and […] assessed as inhibition of cell growth incubated for 96 hrs by coulter counter analysis; type: functional, cell-based; details: MDA-MB-231, 96 h
MCF7 = assay: Antiproliferative activity against human MCF7 cells assessed as inhibition of cell growth incubated for 96 hrs by coulter counter analysis; type: functional, cell-based; details: MCF7, 96 h

Row | Structure (SMILES) | inhibition at 20 µM (HCC1806 [1]) | inhibition at 20 µM (MDA-MB-231 [2]) | Activity (HCC1806 [3]) | Activity (HCC1806 [4]) | IC50 (HCC1806 [5]) | Activity (HCC1806 [6]) | Activity (HCC1806 [7]) | IC50 (MDA-MB-231 [8]) | IC50 (MDA-MB-231 [9]) | IC50 (MDA-MB-231 [10]) | IC50 (MCF7)
1 | CC(=O)O[C@@H]1[C@@H](OC(C)=O)[C@H](O[C@H]2CC[C@]34C[C@]35C[C@@H](OC(C)=O)[C@]3(C)[C@H]6[C@H](C)C[C@]7(O[C@@H](OC(=O)CCC(=O)O)[C@@]8(C)O[C@@H]78)O[C@H]6C[C@@]3(C)[C@@H]5CC[C@H]4C2(C)C)OC[C@H]1OC(C)=O | > 50% | > 50% | Dose-Dependent Effect | Active | 2.78 µM | Dose-Dependent Effect | Active | 9.11 µM |  |  | 
2 | CC(=O)O[C@@H]1C[C@@]23C[C@@]24CC[C@H](O[C@@H]2OC[C@@H](O)[C@H](O)[C@H]2O)C(C)(C)[C@@H]4CC[C@H]3[C@]2(C)C[C@@H]3O[C@]4(C[C@@H](C)[C@@H]3[C@@]12C)O[C@H](O)[C@@]1(C)O[C@@H]41 [ACTEIN] |  |  |  |  | > 20 µM |  |  | > 20 µM | 60 µM | 74 µM | 14 µM
